{
  "source": "paper PMC7221589",
  "about": "“Development of a Rapid Mass Spectrometric Determination of AMP and Cyclic AMP for PDE3 Activity Study: Application and Computational Analysis for Evaluating the Effect of a Novel 2-oxo-1,2-dihydropyridine-3-carbonitrile Derivative as PDE-3 Inhibitor” (Molecules, 2020)",
  "biological_target": "PDE3A (phosphodiesterase enzyme 3A) (Homo sapiens, UniProt Q14432)",
  "sequence (Q14432 whole entry)": "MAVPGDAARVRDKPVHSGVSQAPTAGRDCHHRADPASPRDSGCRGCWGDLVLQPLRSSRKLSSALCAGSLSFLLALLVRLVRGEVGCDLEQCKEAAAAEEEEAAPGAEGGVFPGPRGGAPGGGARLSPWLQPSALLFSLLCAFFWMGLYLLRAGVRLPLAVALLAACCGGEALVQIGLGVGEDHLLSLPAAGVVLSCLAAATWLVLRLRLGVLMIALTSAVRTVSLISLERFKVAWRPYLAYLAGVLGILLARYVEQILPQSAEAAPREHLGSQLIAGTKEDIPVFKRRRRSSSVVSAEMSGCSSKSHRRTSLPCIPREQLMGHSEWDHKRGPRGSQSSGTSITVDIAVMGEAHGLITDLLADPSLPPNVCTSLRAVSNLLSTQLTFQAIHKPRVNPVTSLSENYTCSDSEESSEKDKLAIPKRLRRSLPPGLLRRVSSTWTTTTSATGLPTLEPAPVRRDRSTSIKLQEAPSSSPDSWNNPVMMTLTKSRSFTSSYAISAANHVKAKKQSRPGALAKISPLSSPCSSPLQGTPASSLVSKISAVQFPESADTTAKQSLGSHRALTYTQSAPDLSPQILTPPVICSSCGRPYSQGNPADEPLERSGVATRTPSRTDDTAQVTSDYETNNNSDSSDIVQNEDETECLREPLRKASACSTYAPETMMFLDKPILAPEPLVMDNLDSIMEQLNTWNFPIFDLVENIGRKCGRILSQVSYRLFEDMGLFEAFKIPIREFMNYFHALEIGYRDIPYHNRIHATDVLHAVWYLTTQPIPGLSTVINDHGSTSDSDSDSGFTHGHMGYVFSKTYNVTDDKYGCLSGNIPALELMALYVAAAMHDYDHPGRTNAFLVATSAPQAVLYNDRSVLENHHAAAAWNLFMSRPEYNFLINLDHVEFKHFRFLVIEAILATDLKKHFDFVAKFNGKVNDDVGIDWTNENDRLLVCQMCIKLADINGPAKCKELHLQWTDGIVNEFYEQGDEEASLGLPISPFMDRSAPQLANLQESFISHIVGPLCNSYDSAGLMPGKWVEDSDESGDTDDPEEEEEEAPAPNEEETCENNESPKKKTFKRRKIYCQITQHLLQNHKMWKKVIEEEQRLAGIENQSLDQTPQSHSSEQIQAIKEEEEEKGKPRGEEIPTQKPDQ",
  "assay": "MS/MS assay of cAMP hydrolysis to AMP by purchased PDE3A, dose-response",
  "format": "biochemical",
  "data": [
    {"smiles": "CCOC(=O)N1CCC(NC(=O)c2cc(C#N)c(=O)[nH]c2C)CC1", "note": "[DF492]", "values": [
      {"measurement": "IC50", "value": 410, "unit": "nM"}
    ]}
  ]
}
